{
  "source": "patent US20050075276A1",
  "about": "“Use of inhibitors of glycogen synthase-3 to augment CD28 dependent -T-cell responses” (priority 2003, published 2005)",
  "key": {"K562 cells": {"tested_on": "K562 cells", "test": "Cytolytic T-cell (CTL) killing of K562 cells, CytoTox96 assay", "type": "cell-based, human", "conditions": "for potentiation of cytolytic T-cell response: 6 days co-culture, FIG. 5A", "method": "Cytotoxic activity was also measured and combined with a control where cultures were treated with anti-CD28 mAbs (5 μg/ml). After 6 days, cytolytic T-cells were harvested, washed twice and co-cultured with fresh K562 cells. Cytotoxcity was measured by the CytoTox96 non-radioative cytotoxicity assay from Promega (Southampton, UK).\n(§1) Peripheral blood lymphocytes (PBLs) were isolated by Ficoll gradient centrifugation from Buffy coats, or from blood samples (60-120 cc) taken from healthy volunteers. Leukemic cells K562 were first treated with 50 ug/ml Mitomycin C (Sigma) for 1 hour in 5% CO2 incubator at 37° C. and then washed at least three times with RPMI 1640 to remove the presence of drug. Washed K562 cells and PBLs (1:5 ratio) were then resuspended in RPMI 1640 with 5% fetal calf serum, 1% penicillin-streptomycin and 1% L-glutamine. PBLs and leukemic cells were transferred into 24 well plate. […] Occassionally, PBLs would be preincubated with inhibitor for periods of time (i.e. 5-24 hours) prior to incubation with K562 cells. In either case, cell cultures were then allowed to incubate for 8 days in 5% CO2 incubator at 37° C. prior to an assessment of cytotoxic function. Over this period, the K562 cells die due to the treatment with mitomycin c.\nFor an assessment of cytotoxity, effector cells (PBLs) and fresh target cell K562 were added into 96 well plates at various ratios (50:1; 25:1 etc.). Culture medium, effector cells and target cells were added into separate wells as background controls. Cytotoxicity was assessed using a Cytotoxicity Assay kit (Promega) as outlined by the manufacturer.\nCytotoxicity was measured by CytoTox96® assay."}, "Peripheral T-cells": {"tested_on": "Peripheral T-cells", "test": "T-cell proliferation in response to tumor cell line K562 (3H-thymidine incorporation)", "type": "cell-based, human", "conditions": "48 hours, mitomycin C treated K562; FIG. 4", "method": "as §1"}},
  "data": [
    {"compound": "[Cl-].[Li+]", "note": "[Lithium Chloride]", "values": [
      {"measurement": "effect on cytolytic T-cell (CTL) killing of K562 cells", "setting": "K562 cells; FIG. 6, inhibitor added at 1 mM and 5 mM", "value": "enhances"}
    ]},
    {"compound": "O=C1NC(=O)C(c2ccccc2[N+](=O)[O-])=C1Nc1ccc(O)c(Cl)c1", "note": "[SB415286]", "values": [
      {"measurement": "increase in level of proliferative response to K562", "setting": "Peripheral T-cells", "value": "two-three fold"},
      {"measurement": "potentiation of cytolytic T-cell response", "setting": "K562 cells; 10 um, 50:1 effector target ratio", "value": "5-6 fold"},
      {"measurement": "potentiation of cytolytic T-cell response", "setting": "K562 cells; 50 um, 25:1 ratio", "value": "5-6 fold"}
    ]}
  ]
}
